Values joined by “and” are separate entries in the source; they are usually repeats but may differ in a detail not shown here. Identical values can stand only once. Like-named read-outs stand apart in the source and are kept apart here.
Biological target: human GS3 heparanase (Homo sapiens, UniProt Q9Y251)
Test: fondaparinux assay of heparanase enzymatic activity (WST-1 colorimetric)
Format: biochemical
Conditions: for % inhib @25 M ± SD: fixed concentration 25 µM (25 M [sic]); for % inhib @2.5 M ± SD: fixed concentration 2.5 µM (2.5 M [sic])
Description: To determine the activity of the heparanase inhibitors, a homogeneous assay based on the cleavage of the synthetic heparin oligosaccharide fondaparinux (Arixtra; Aspen) was used. The assay measures colorimetrically the appearance of the disaccharide product of heparanase-catalysed fondaparinux cleavage using the tetrazolium salt WST-1. The assay was essentially performed as described[39] with minor modifications. Briefly, Nunc 96-well (Thermo Fisher Scientific) plates were pre-treated with a solution of 4% BSA (bovine serum albumin, Sigma-Aldrich) in phosphate-buffered saline containing 0.05% Tween 20 (PBST), for 2 h at 37 °C, and then washed three times with PBST. […] The IC50 value for each compound was calculated by GraphPad software. Finally, the measurements were corrected by subtracting both the reagent background and the inner absorbance value of test compound.
Supporting Table S1 reports the structures of the fifty-five compounds purchased and tested, with information, for each compound, on the database from which it was retrieved, the reference inhibitor used to retrieve it and the similarity value with the reference inhibitor.

[1] = fondaparinux assay on human GS3 heparanase, mean of triplicates, read-out: IC50 (µM) ± SD, heparanase inhibitory activity
[2] = Table S1, fondaparinux assay on GS3 heparanase, read-out: IC50 (M) ± SD
[3] = fondaparinux assay on human GS3 heparanase, mean of triplicates

Chain of human GS3 heparanase (Q9Y251 other isoform, or with tags, fused parts or gaps): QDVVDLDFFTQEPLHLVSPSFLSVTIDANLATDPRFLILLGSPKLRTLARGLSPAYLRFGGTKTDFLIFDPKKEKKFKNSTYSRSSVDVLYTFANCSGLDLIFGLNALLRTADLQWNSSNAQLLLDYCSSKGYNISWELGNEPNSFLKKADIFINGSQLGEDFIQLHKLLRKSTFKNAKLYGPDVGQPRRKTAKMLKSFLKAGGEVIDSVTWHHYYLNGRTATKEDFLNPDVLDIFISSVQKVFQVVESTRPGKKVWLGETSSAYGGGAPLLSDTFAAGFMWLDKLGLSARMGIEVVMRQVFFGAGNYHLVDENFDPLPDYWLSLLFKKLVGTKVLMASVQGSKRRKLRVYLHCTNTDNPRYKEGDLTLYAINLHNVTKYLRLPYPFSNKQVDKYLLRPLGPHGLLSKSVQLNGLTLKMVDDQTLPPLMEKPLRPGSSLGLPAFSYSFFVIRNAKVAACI

SMILES | % inhib @25 M ± SD (Table S1) | % inhib @2.5 M ± SD (Table S1) | also measured
O=C(Nc1cccc(C(=O)Nc2ccc(S(=O)(=O)O)c3cc(S(=O)(=O)O)cc(S(=O)(=O)O)c23)c1)Nc1cccc(C(=O)Nc2ccc(S(=O)(=O)O)c3cc(S(=O)(=O)O)cc(S(=O)(=O)O)c23)c1 [Compound 9] | Not active |  | 
O=C(Nc1cccc(C(=O)Nc2cc(C(=O)Nc3ccc(S(=O)(=O)O)c4cc(S(=O)(=O)O)cc(S(=O)(=O)O)c34)ccc2F)c1)Nc1cccc(C(=O)Nc2cc(C(=O)Nc3ccc(S(=O)(=O)O)c4cc(S(=O)(=O)O)cc(S(=O)(=O)O)c34)ccc2F)c1 [Compound 10] | 100 ± 1% | 39 ± 3% | 
O=C(Nc1ccc2c(O)c(N=Nc3ccc(N=Nc4ccc(S(=O)(=O)O)cc4)cc3S(=O)(=O)O)c(S(=O)(=O)O)cc2c1)Nc1ccc2c(O)c(N=Nc3ccc(N=Nc4ccc(S(=O)(=O)O)cc4)cc3S(=O)(=O)O)c(S(=O)(=O)O)cc2c1 [Compound 15] |  |  | IC50 [1]: 0.93 ± 0.07 µM
COc1cc(N=Nc2cccc(S(=O)(=O)O)c2)ccc1NC(=O)Nc1ccc(N=Nc2ccc(O)c(C(=O)O)c2)cc1 [Compound 17] | 95 ± 1% | 14 ± 2% | 
O=C(Nc1ccc2c(O)c(N=Nc3ccccc3)c(S(=O)(=O)O)cc2c1)Nc1ccc2c(O)c(N=Nc3ccccc3)c(S(=O)(=O)O)cc2c1 [Compound 18] | 11 ± 3% | 12 ± 3% | 
Nc1ccc2cc(S(=O)(=O)O)cc(O)c2c1N=Nc1ccc(NC(=O)Nc2ccc(N=Nc3c(N)ccc4cc(S(=O)(=O)O)cc(O)c34)c(S(=O)(=O)O)c2)cc1S(=O)(=O)O [Compound 20] |  |  | IC50 [1]: 1.76 ± 0.23 µM
O=C(Nc1ccc(Br)cc1C(=O)O)c1ccc(Oc2ccc(C(=O)Nc3ccc(Br)cc3C(=O)O)cc2)cc1 [Compound 21] |  |  | IC50 [1]: 2.66 ± 0.32 µM
O=C(Nc1ccccc1Oc1ccc(C(=O)O)c(C(=O)O)c1)c1ccc(Oc2ccc(C(=O)Nc3ccccc3Oc3ccc(C(=O)O)c(C(=O)O)c3)cc2)cc1 [Compound 22] | 60 ±1% | 21 ± 1% | 
O=C(Nc1ccccc1C(=O)O)c1ccc2c(c1)C(=O)N(c1ccc(Oc3ccc(N4C(=O)c5ccc(C(=O)Nc6ccccc6C(=O)O)cc5C4=O)cc3)cc1)C2=O [Compound 23] | 96 ± 3% |  | 
O=C(Nc1ccccc1C(=O)O)c1ccc2c(c1)C(=O)N(c1ccc(S(=O)(=O)c3ccc(N4C(=O)c5ccc(C(=O)Nc6ccccc6C(=O)O)cc5C4=O)cc3)cc1)C2=O [Compound 24] |  |  | IC50 [1]: 1.1 ± 0.13 µM
O=C(O)c1ccc2c(c1)C(=O)N(NC(=O)c1ccc(Oc3ccc(C(=O)NN4C(=O)c5ccc(C(=O)O)cc5C4=O)cc3)cc1)C2=O [Compound 25] | Not active |  | 
O=C(O)c1cc(C(=O)O)cc(N2C(=O)c3ccc(C(=O)c4ccc5c(c4)C(=O)N(c4cc(C(=O)O)cc(C(=O)O)c4)C5=O)cc3C2=O)c1 [Compound 26] | 99 ± 6% | 35 ± 1% | 
O=C(O)c1ccc(Oc2ccc3c(c2)C(=O)N(c2ccc(S(=O)(=O)c4ccc(N5C(=O)c6ccc(Oc7ccc(C(=O)O)cc7)cc6C5=O)cc4)cc2)C3=O)cc1 [Compound 27] | 70 ± 6% | Not active | 
Cc1c(NS(=O)(=O)c2cc(C(=O)Nc3ccc(-c4nc5ccccc5[nH]4)cc3)ccc2Cl)c(=O)n(-c2ccccc2)n1C [Compound 28] | 59 ± 5% | 14 ± 6% | 
COc1cc(C(=O)Nc2ccc(-c3nc4cc(NC(=O)c5cc(OC)c(OC)c(OC)c5)ccc4[nH]3)cc2)cc(OC)c1OC [Compound 30] | 1 ± 1% | 11 ± 4% | 
O=C(CSc1nc2ccccc2[nH]1)Nc1ccc(-c2nc3cc(NC(=O)CSc4nc5ccccc5[nH]4)ccc3o2)cc1 [Compound 33] | 58 ± 1% | 36 ± 5% | 
O=C(O)c1ccc(Oc2ccc3c(c2)C(=O)N(c2ccc(Oc4ccc(N5C(=O)c6ccc(Oc7ccc(C(=O)O)cc7)cc6C5=O)cc4)cc2)C3=O)cc1 [Compound 34] |  |  | IC50 [1]: 3.15 ± 0.28 µM
O=C(O)/C=C/C(=O)Nc1ccc(Sc2ccc(Oc3ccc(Sc4ccc(NC(=O)/C=C/C(=O)O)cc4)cc3)cc2)cc1 [Compound 35] |  |  | IC50 [1]: 0.52 ± 0.02 µM
O=C(O)c1ccc(Oc2cccc(N3C(=O)c4ccc(Oc5ccc6c(c5)C(=O)N(c5cccc(Oc7ccc(C(=O)O)c(C(=O)O)c7)c5)C6=O)cc4C3=O)c2)cc1C(=O)O [Compound 36] |  |  | IC50 [1]: 0.63 ± 0.01 µM
O=C(O)COc1ccc(N2C(=O)c3ccc(Oc4ccc5c(c4)C(=O)N(c4ccc(OCC(=O)O)cc4)C5=O)cc3C2=O)cc1 [Compound 37] |  |  | IC50 [2]: > 5 µM
O=C(Nc1cccc(-c2nc3ccccc3s2)c1)c1ccc(Oc2ccc(C(=O)Nc3cccc(-c4nc5ccccc5s4)c3)cc2)cc1 [Compound 38] |  |  | IC50 [2]: 5.75 ± 0.05 µM

SMILES | % inhib @25 M ± SD (Table S1) | % inhib @2.5 M ± SD (Table S1) | also measured
O=C(Nc1ccc(-c2nc3ccccc3o2)cc1)c1ccc(Oc2ccc(C(=O)Nc3ccc(-c4nc5ccccc5o4)cc3)cc2)cc1 [Compound 39] | 63 ± 16% | 60 ± 21% | 
O=C(Nc1cccc(C(=O)c2ccccc2)c1)c1ccc(Oc2ccc(C(=O)Nc3cccc(C(=O)c4ccccc4)c3)cc2)cc1 [Compound 40] |  |  | IC50 [2]: > 5 µM
O=C(Nc1nc(-c2ccc3ccccc3c2)cs1)c1ccc(Oc2ccc(C(=O)Nc3nc(-c4ccc5ccccc5c4)cs3)cc2)cc1 [Compound 41] | 76 ± 2% | 54 ± 6% | 
O=C(Nc1nc(-c2ccc(F)cc2)cs1)c1ccc(Oc2ccc(C(=O)Nc3nc(-c4ccc(F)cc4)cs3)cc2)cc1 [Compound 43] | 67 ± 4% | 44 ± 1% | 
O=C(Nc1ccc(Oc2ccc(NC(=O)c3ccc4c(c3)C(=O)N(c3nccs3)C4=O)cc2)cc1)c1ccc2c(c1)C(=O)N(c1nccs1)C2=O [Compound 44] | 60 ± 5% | 62 ± 2% | 
O=C(Nc1c[nH]c(=O)[nH]c1=O)c1ccc2c(c1)C(=O)N(c1ccc(Oc3ccc(N4C(=O)c5ccc(C(=O)Nc6c[nH]c(=O)[nH]c6=O)cc5C4=O)cc3)cc1)C2=O [Compound 45] | 67 ± 4% | 41 ± 3% | 
O=C(Nc1cccc(Oc2ccc(S(=O)(=O)c3ccc(Oc4cccc(NC(=O)c5ccc(F)cc5)c4)cc3)cc2)c1)c1ccc(F)cc1 [Compound 46] |  |  | IC50 [2]: > 5 µM
O=C(Nc1ccc(Sc2ccc(Oc3ccc(Sc4ccc(NC(=O)c5cccc(F)c5)cc4)cc3)cc2)cc1)c1cccc(F)c1 [Compound 47] | 66 ± 5% | 30 ± 3% | 
CC(C)(c1ccc(Oc2ccc3c(c2)C(=O)N(c2cccc(C(=O)O)c2)C3=O)cc1)c1ccc(Oc2ccc3c(c2)C(=O)N(c2cccc(C(=O)O)c2)C3=O)cc1 [Compound 48] |  |  | IC50 (µM) ± SD, heparanase inhibitory activity [3]: significant inhibitory potencies; IC50 [1]: 0.91 ± 0.1 µM
CC(C)(c1ccc(Oc2ccc3c(c2)C(=O)N(c2ccc(C(=O)O)cc2)C3=O)cc1)c1ccc(Oc2ccc3c(c2)C(=O)N(c2ccc(C(=O)O)cc2)C3=O)cc1 [Compound 49] |  |  | IC50 (µM) ± SD, heparanase inhibitory activity [3]: significant inhibitory potencies; IC50 [1]: 2.35 ± 0.23 µM
O=C(O)c1cc(NC(=O)c2ccc(Oc3ccc(C(=O)Nc4cc(C(=O)O)cc(C(=O)O)c4)cc3)cc2)cc(C(=O)O)c1 [Compound 50] |  |  | IC50 (µM) ± SD, heparanase inhibitory activity [3]: good inhibitory potencies; IC50 [1]: 2.01 ± 0.13 µM
O=C(Nc1ccc(O)cc1C(=O)O)c1ccc(Oc2ccc(C(=O)Nc3ccc(O)cc3C(=O)O)cc2)cc1 [Compound 51] | 77 ± 4% | 42 ± 6% | 
O=C(O)c1cc(NC(=O)c2ccc(S(=O)(=O)c3ccc(C(=O)Nc4cc(C(=O)O)cc(C(=O)O)c4)cc3)cc2)cc(C(=O)O)c1 [Compound 52] | 54 ± 8% | 45 ± 7% | 
O=C(Nc1ccc(O)cc1C(=O)O)c1ccc(S(=O)(=O)c2ccc(C(=O)Nc3ccc(O)cc3C(=O)O)cc2)cc1 [Compound 53] |  |  | IC50 [2]: 5.29 ± 0.84 µM; IC50 (µM) ± SD, heparanase inhibitory activity [3]: good inhibitory potencies
O=C(O)c1cccc(NC(=O)c2ccc(S(=O)(=O)c3ccc(C(=O)Nc4cccc(C(=O)O)c4)cc3)cc2)c1 [Compound 54] | 72 ± 1% | 22 ± 7% | 
O=C(O)c1ccc(NC(=O)c2ccc(S(=O)(=O)c3ccc(C(=O)Nc4ccc(C(=O)O)cc4)cc3)cc2)cc1 [Compound 55] | 43 ± 7% | 30 ± 4% | 
O=C(O)CCC(=O)Nc1ccc(Oc2ccc(S(=O)(=O)c3ccc(Oc4ccc(NC(=O)CCC(=O)O)cc4)cc3)cc2)cc1 [Compound 56] | 51 ± 5% | 20 ± 5% | 
O=C(O)c1ccccc1N1C(=O)c2ccc(Oc3ccc(Oc4ccc5c(c4)C(=O)N(c4ccccc4C(=O)O)C5=O)cc3)cc2C1=O [Compound 58] |  |  | IC50 [1]: < 5 µM and 3.78 µM
O=C(O)c1ccc2c(c1)C(=O)N(c1cccc(Oc3cccc(Oc4cccc(N5C(=O)c6ccc(C(=O)O)cc6C5=O)c4)c3)c1)C2=O [Compound 59] |  |  | IC50 (µM) ± SD, heparanase inhibitory activity [3]: good inhibitory potency; IC50 [1]: 2.08 ± 0.16 µM
O=C(O)c1ccc(N2C(=O)c3ccc(Oc4cccc(Oc5ccc6c(c5)C(=O)N(c5ccc(C(=O)O)cc5)C6=O)c4)cc3C2=O)cc1 [Compound 60] | 65 ± 4% | 53 ± 12% | 
